The record followed here is patent publication US10087427B2, “Glycosyltransferase gene and use thereof” (SUNTORY HOLDINGS LIMITED, priority 2014, dated 2018).

For the assay, the system named is NmGT22 protein. Kind of assay: Enzyme activity of purified His-tag NmGT22 protein on flavonoid substrates (HPLC). The conditions noted are these: NmGT22 protein solution, UDP-glucose; for reaction rate (percentage of transformed substrate): 1 μl of 2 mM substrate in 100 μl, 20 minutes at 30° C. It counts as biochemical, Nemophila menziesii. The procedure: E. coli strain BL2 introduced with pET SUMO-NmGT22 described in Example 5 was cultured using the Overnight Express Auto-induction System 1 (Novagen Inc.) in accordance with the manufacturer's recommended protocol. The transformed E. coli were cultured in 8 ml of prepared culture broth at 37° C. until the OD600 value reached 0.5 (about 4 hours). This E. coli culture broth was added to 200 ml of a culture broth as pre-culture broth followed by final culturing overnight at 25° C.
After having been cultured overnight, the E. coli culture broth was centrifuged (1,000×g, 4° C., 10 minutes), the harvested bacterial cells were suspended in 20 ml of extract (composition: buffer solution (300 mM KCl, 50 mM KH2PO4, 5 mM imidazole) (pH 8.0), 10 μM amidinophenylmethanesulfonyl fluoride hydrochloride (APMSF)), and the E. coli were crushed by ultrasonic treatment followed by centrifuging (1,400×g, 4° C., 20 minutes) and recovering the supernatant. The supernatant was passed through a 0.45 μm filter and subjected to His-Tag purification using Profinia (Bio-Rad Corp.) in accordance with the manufacturer's recommended protocol. The resulting purified protein solution was centrifuged (7,500×g, 4° C., 15 minutes) using a centrifugal filter unit (Ultracel-10K, Amicon Ultra), and the concentrated protein solution was used as “NmGT-22 Protein Solution”. The Avanti HP-26XP centrifuge (rotor: JA-2, Beckman Coulter Inc.) was used for centrifugation.
A reaction solution prepared by mixing 10 μl of protein solution, 2 it of 50 mM UDP-glucose, 10 μl of 1 M Tris-HCl (pH 7.5) and 1 μl of 2 mM apigenin 4′-glucoside (dissolved in 50% aqueous acetonitrile solution containing 0.1% TFA) on ice and bringing to reaction volume of 100 μl with water was held for 20 minutes at 30° C. Subsequently, 100 μl of stop buffer (90% aqueous acetonitrile solution containing 0.1% TFA) were added to stop the reaction followed by analyzing the reaction solution by high-performance liquid chromatography (Prominence, Shimadzu Corp.). Flavone was detected at 330 nm using the Shimadzu PDA SPD-M10AVP for the detector. The Shim-Pack ODS column (150 mm×4.6 mm, Shimadzu Corp.) was used for the column. A liquid A (0.1% aqueous TFA solution) and a liquid B (90% aqueous methanol solution containing 0.1% TFA) were used for elution. Elution was carried out for 10 minutes at a linear concentration gradient from an 8:2 mixture of the two solutions to a 3:7 mixture of the two solutions followed by eluting for 6 minutes using a 3:7 mixture of the two solutions. The flow rate was 0.6 ml/min.

Turning to `O=c1cc(-c2ccc(O[C@@H]3O[C@H](CO)[C@@H](O)[C@H](O)[C@H]3O)cc2)oc2cc(O)cc(O)c12` [apigenin 4′-glucoside], the “reaction rate (percentage of transformed substrate)” value stood at 100%.
As for `O=c1cc(-c2ccc(O)cc2)oc2cc(O[C@@H]3O[C@H](CO)[C@@H](O)[C@H](O)[C@H]3O)cc(O)c12` [apigenin 7-glucoside], the “reaction rate (percentage of transformed substrate)” value is 2.69%.
The same measure, in the same setting: then `O=c1cc(-c2ccc(O)cc2)oc2cc(O)cc(O)c12` [apigenin, 4′,5,7-trihydroxyflavone], with 77.16%.
For the compound `O=c1cc(-c2ccc(O[C@@H]3O[C@H](CO)[C@@H](O)[C@H](O)[C@H]3O)c(O)c2)oc2cc(O)cc(O)c12` [luteolin 4′-glucoside], the “product synthesized by enzyme reaction” value (2 mM substrate, same reaction conditions) is “Luteolin 4′,7-diglucoside was synthesized”.
With `O=c1cc(-c2ccc(O)c(O)c2)oc2cc(O[C@@H]3O[C@H](CO)[C@@H](O)[C@H](O)[C@H]3O)cc(O)c12` [luteolin 7-glucoside], the “reaction rate (percentage of transformed substrate)” value stood at 16.10%.
The same measure, in the same setting: then `O=c1cc(-c2ccc(O)c(O)c2)oc2cc(O)cc(O)c12` [luteolin, 3′,4′,5,7-tetrahydroxyflavone], with 99.07%.
